Test results reported in patent publication US12616704B2, “Cannabichromene formulation for pain management” (Zyus Life Sciences Inc., priority 2020, dated 2026).

Tested on: Oxaliplatin-induced cool allodynia
Assay: Acetone Cooling Test (ACT) in oxaliplatin-induced polyneuropathy (OIPN) model
Assay type: in vivo, C57BL/6J mice
Settings: CBC 20 mg/kg p.o.
Protocol: Model Induction—Mouse Oxaliplatin-induced polyneuropathy (OIPN) model was induced over a three-week period. The day of first Oxaliplatin (OXP) injection is referred to as day 0 (DO). OXP was administered as six separate intraperitoneal injections at 4.5-mg/kg (10 ml/kg, i.p.) to Groups 2, 3, and 4 on DO, D4, D8, D12, D16, and D20. The cumulative OXP dose was thus 27 mg/kg. The in-life procedures, such as observations, tests, and/or measurements were performed by Charles River Discovery Services with blinded methods. The mice were distributed into 4 groups (n=8 for Vehicle Control; n=10 OXP Control; n=20 CBC; n=15 Duloxetine).
Treatments—Following exposure to OXP for 20 days, Groups 3 and 4 were treated with CBC (20 mg/kg, p.o.) and Duloxetine (25 mg/kg, i.p.), respectively, for 10 consecutive days. In a similar regimen Groups 1 and 2 (Vehicle Control and OXP-Vehicle Control, respectively) received a corresponding volume of 5% glucose solution at an administration volume of 10 mL/kg.
Acetone Cooling Test (ACT) —To produce a measurable cooling sensation, 10-15 μL of acetone was applied onto the medial area of the plantar hind paw with a 0.5 ml insulin syringe. Responses of a mouse to acetone were monitored for 20 s, and a score given based on a four-point scale (0-3 points), according to the response intensity, continuation, and briskness. The higher the score, the greater the cool allodynia sensed by the mouse.
Within one test timepoint, a total of 3 trials were performed per paw with a minimum gap of 5 min between testing. The three individual scores were added up to obtain a single score over a cumulative period of 60 s. Thus, for one test, the minimum score of one paw is 0 (no cool allodynia), while the maximum possible score is 9 (intensive cool allodynia). The total scores for the left and right paws were averaged to accomplish a single result value per mouse at each timepoint.
The Acetone Cooling Test was performed prior to OXP administration (Baseline), following the last OXP injection (D21), one day after the first CBC, Duloxetine, or Vehicle treatment (D22), and after a 10-day daily dosing of CBC, Duloxetine, or Vehicle treatment (D31). Taken together, the ACT was used to assess chemotherapy-induce cool allodynia as stated in the schedule:
On D22: At 60 min after the first Vehicle/CBC dose and 120 min after Dulx dose.
On D31: At 60 min after the last Vehicle/CBC and 120 min after Dulx dose.

`CCCCCc1cc(O)c2c(c1)OC(C)(CCC=C(C)C)C=C2` (centres unmarked) [CBC, cannabichromene] was tested, and the “ACT score compared with OXP-Vehicle control” value (D22, acute single dose, Duloxetine 25 mg/kg i.p.) was “statistically significant and comparable reduction in cool allodynia”, the “ACT score compared with OXP-Vehicle control” value (D31, chronic repeated dosing, Duloxetine 25 mg/kg i.p.) was “qualitative but not statistically significant reduction” and the “ACT score compared with OXP-Vehicle control: p” value (D31, chronic repeated dosing, Mann-Whitney test) was 0.06. The “ACT score, D31 vs. D21” value (within group, 10-day repeated dosing, Duloxetine 25 mg/kg i.p.) was “significant reversion of cool allodynia” and the “ACT score, reversion of cool allodynia D22 vs. D21 pre-treatment: p” value (within group, single dose, Duloxetine 25 mg/kg i.p.) was < 0.001.
